Measurements from patent US5308843A, “Method of inhibiting mammalian topoisomerase II and malignant cell growth in mammals, with substituted (S)-3-methyl-7-oxo-2,3-dihydro-7H-pyrido[1,2,3-de][1,4 ]-benzoxazine(and-benzothiazine)-6-carboxylic acids” (Sterling Drug Inc., priority 1990, dated 1994).

Tests used:
human topoisomerase II = target: T1, human topoisomerase II (Homo sapiens, UniProt P11388); assay: Mammalian (human) topoisomerase II inhibition assay: topo II-DNA complex stabilisation; type: biochemical; conditions: concentration with activity equal to the EC50 of reference mAMSA; 20 min at 37° C.
T1 construct: Topo II was purified from late log phase suspension cultures of HeLa WIS; endogenous in cells; host or cells: HeLa WIS (late log phase suspension cultures); native enzyme purified in house
Text: Mammalian Topoisomerase II Inhibition Assay Procedure
The inhibition of human topoisomerase II (hereafter topo II) was quantitated by a procedure adapted from that described by Trask et al., EMBO J., 3, 671-676 (1984). The assay quantitates the amount of topo II covalently complexed by DNA at equilibrium during a topo II reaction. This assay determines the potential of a compound to stabilize this complex, which potential is closely related to the cytotoxicity of the compound.
Topo II was purified from late log phase suspension cultures of HeLa WIS by an adaption of the method described by Per et al., Mol. Pharmacol., 32, 17-25 (1987).
Assays (in duplicate) were assembled at 4° C. Assay mix (25 μl) was distributed in Beckman (No. 265270) 1.5 ml microtitre tubes followed by the addition of 5 μl test compound to yield the final concentrations of assay components:
4 ng 3' end labeled (32p) pBR322 DNA (10^7 DPM/μg)
The assay mix including the test compound was incubated for 20 minutes at 37° C. The reaction was terminated at 37° C. by the addition of 3 μl 10% SDS followed by the addition of 266 μl 10 mM Tris-Cl pH 7.5, 20 μg/ml BSA, 20 μg/ml calf thymus DNA, 1% SDS.
A SDS/protein precipitate was formed by the addition of 28 μl 2.5M KCl followed by chilling on ice for a minimum of 10 minutes. The precipitate was collected and washed with a Brandell cell harvester on a GFB glass fiber filter membrane as follows. The contents of the assay tube were drawn up into the harvester. The tube was then rinsed 7× with 10 mM Tris-Cl pH 7.5, 1 mM EDTA and 100 mM KCl. The precipitate was washed with 1 L of a solution of 10 mM Tris-Cl pH 7.5, 1 mM EDTA, 100 mM KCl followed by 1 L of 95% ethyl alcohol and finally 0.5 L 70% of ethyl alcohol (per 48 samples in each case). After drying, CPM was determined by liquid scintillation counting with 5 ml Biofluor (NEN Research Products) or Readisafe (Beckman Instruments Inc.) cocktail.
Preparation of test compound--A stock solution (6 mg/ml) of test compound was prepared either in 0.1N sodium hydroxide or 0.2N hydrogen chloride. This solution then was diluted 1/5 into water and serially thereafter in either 0.02N sodium hydroxide or 0.04N hydrogen chloride, respectively. The stock solution and serial dilution of the test compound was stored at -20° C. prior to testing.
Screening of test compound--As an initial screen, the test compound was tested at a final concentration of 2, 20 and 200 μg/ml.
Controls--A solvent control which indicates the base level of topo II-DNA complex formed in the absence of the test compound was included in each test. A control, in which topo II was omitted, was included for each test compound at the highest drug concentration tested.
Reference agent--A dose response curve with mAMSA at 0.01, 0.08, 0.16, 0.32, 1.0 and 10 μg/ml was included in each test.
Data reduction--The EC50 (effective concentration at which 50% of the maximal DNA-topo II complex is formed) of a test compound is defined to be the concentration with activity equal to the EC50 of the reference agent, mAMSA. The maximal DNA-topo II complex formed is taken as that equal to that formed at the nearly saturating dose of mAMSA (10 μg/ml).

[1] = test system: topoisomerase II of fetal calf thymus; conditions: among compared quinolones, Hoshino et al. 1989; cited from earlier work
[2] = test system: DNA topoisomerase II from calf thymus; conditions: Hussy et al. 1986; cited from earlier work
[3] = test system: procaryotic and eucaryotic topoisomerase enzymes; conditions: Jefson et al. 1989; cited from earlier work
[4] = test system: purified eukaryotic topoisomerase II; conditions: Barrett et al. 1987; cited from earlier work

T1 sequence (P11388 whole entry): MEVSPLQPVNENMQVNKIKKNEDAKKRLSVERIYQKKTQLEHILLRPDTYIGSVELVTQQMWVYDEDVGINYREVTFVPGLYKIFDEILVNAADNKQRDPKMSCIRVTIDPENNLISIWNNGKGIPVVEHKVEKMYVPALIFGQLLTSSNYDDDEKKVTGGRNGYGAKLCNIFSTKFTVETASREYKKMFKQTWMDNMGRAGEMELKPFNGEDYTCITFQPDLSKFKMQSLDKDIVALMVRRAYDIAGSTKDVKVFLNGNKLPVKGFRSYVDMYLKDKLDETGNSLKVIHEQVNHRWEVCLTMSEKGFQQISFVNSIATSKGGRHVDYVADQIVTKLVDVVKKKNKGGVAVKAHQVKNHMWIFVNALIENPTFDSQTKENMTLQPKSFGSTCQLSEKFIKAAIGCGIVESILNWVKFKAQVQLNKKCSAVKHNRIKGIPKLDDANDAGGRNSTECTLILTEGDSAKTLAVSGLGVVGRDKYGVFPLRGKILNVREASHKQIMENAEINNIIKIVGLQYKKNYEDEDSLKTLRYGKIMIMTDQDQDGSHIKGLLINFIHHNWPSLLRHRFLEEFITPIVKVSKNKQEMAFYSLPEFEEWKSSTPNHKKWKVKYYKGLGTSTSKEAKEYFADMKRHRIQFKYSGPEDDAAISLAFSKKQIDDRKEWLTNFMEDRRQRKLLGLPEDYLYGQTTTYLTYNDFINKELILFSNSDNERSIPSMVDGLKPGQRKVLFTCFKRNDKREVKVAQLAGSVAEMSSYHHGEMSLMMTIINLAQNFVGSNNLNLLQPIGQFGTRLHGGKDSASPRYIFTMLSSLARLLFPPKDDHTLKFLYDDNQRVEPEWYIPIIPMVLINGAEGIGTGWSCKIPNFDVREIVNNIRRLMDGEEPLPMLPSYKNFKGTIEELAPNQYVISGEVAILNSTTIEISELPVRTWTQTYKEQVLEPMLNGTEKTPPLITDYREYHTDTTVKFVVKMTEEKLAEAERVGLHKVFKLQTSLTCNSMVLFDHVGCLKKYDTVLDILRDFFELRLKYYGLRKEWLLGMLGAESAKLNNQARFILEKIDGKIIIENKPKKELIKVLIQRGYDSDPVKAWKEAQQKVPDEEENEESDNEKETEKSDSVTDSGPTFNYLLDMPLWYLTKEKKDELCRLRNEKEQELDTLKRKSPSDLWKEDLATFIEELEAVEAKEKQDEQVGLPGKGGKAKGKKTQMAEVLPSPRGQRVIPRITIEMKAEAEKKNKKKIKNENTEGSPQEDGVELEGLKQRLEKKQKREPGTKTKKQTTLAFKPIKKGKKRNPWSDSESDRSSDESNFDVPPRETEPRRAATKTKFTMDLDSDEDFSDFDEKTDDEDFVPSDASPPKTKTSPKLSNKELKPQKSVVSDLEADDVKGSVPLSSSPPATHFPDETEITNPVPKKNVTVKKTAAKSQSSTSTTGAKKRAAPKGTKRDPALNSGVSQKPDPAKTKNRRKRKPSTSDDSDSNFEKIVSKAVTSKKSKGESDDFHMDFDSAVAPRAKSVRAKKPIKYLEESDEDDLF

In the case of `Cc1cc(-c2c(F)c(F)c3c(=O)c(C(=O)O)cn4c3c2OC[C@@H]4C)cc(C)n1` [Example 6, (S)-10-(2,6-Dimethyl-4-pyridinyl)-8,9-difluoro-3-methyl-7-oxo-2,3-dihydro-7H-pyrido[1,2,3-de][1,4]benzoxazine-6-carboxylic acid], the EC50 (human topoisomerase II) is reported as 50 µM.

In the case of `CC1COc2c(N3CCN(C)CC3)c(F)cc3c(=O)c(C(=O)O)cn1c23` (centres unmarked) [ofloxacin, 9-fluoro-3-methyl-10-(4-methyl-1-piperazinyl)-7-oxo-2,3-dihydro-7H-pyrido[1,2,3-de][1,4]benzoxazine-6-carboxylic acid], the “potency of inhibition of topoisomerase II (in words)” value [1] is listed as “lowest” and the “Ki values of 50% inhibition” value [2] is listed as 1300 µg/mL.

In the case of `C[C@H]1COc2c(-c3ccc4ncccc4c3)c(F)cc3c(=O)c(C(=O)O)cn1c23` [S-(-)-CP-100,964, (S)-9-fluoro-3-methyl-10-(6-quinolyl)-7-oxo-7H-pyrido[1,2,3-de][1,4]benzoxazine-6-carboxylic acid], the “combined activity against procaryotic and eucaryotic topoisomerase enzymes (in words)” value [3] is given as “combined potent activity”.

For `Cc1cc(-c2c(F)cc3c(=O)c(C(=O)O)cn4c3c2[S@@+]([O-])CC4C)cc(C)n1` (stereo partly drawn) [Example 4, (S)-10-(2,6-Dimethyl-4-pyridinyl)-9-fluoro-3-methyl-7-oxo-2,3-dihydro-7H-pyrido[1,2,3-de][1,4]benzothiazine-6-carboxylic acid 1-oxide], the EC50 (human topoisomerase II) was 62 µM.

Work on `CCc1cc(-c2c(F)cc3c(=O)c(C(=O)O)cn4c3c2OC[C@@H]4C)cc(C)n1` [Example 2(d), (S)-10-(2-Ethyl-6-methyl-4-pyridinyl)-9-fluoro-2,3-dihydro-3-methyl-7-oxo-7H-pyrido[1,2,3-de][1,4]benzoxazine-6-carboxylic acid] yielded an EC50 (human topoisomerase II) of 68 µM.

For `O=C(O)c1cn(C2CC2)c2cc(N3CCNCC3)c(F)cc2c1=O` [ciprofloxacin, 1-cycloproyl-6-fluoro-7-(1-piperazinyl)-1,4-dihydro-4-oxo-3-quinolinecarboxylic acid], the “Ki values of 50% inhibition” value [2] is given as 150 µg/mL.

In the case of `Cc1cc(-c2c(F)cc3c(=O)c(C(=O)O)cn4c3c2OC[C@@H]4C)cc(C)n1` [Example 7, (S)-10-(2,6-Dimethyl-4-pyridinyl)-9-fluoro-3-methyl-7-oxo-2,3-dihydro-7H-pyrido[1,2,3-de][1,4]benzoxazine-6-carboxylic acid], the EC50 (human topoisomerase II) is reported as 31 µM.

In the case of `CCn1cc(C(=O)O)c(=O)c2cc(F)c(N3CCNCC3)cc21` [norfloxacin, 1-ethyl-6-fluoro-7-(1-piperazinyl)-1,4-dihydro-4-oxo-3-quinolinecarboxylic acid], the “enhancement/induction of DNA cleavage mediated by topoisomerase II (in words)” value [4] is given as “not to be potent enhancers of DNA cleavage mediated by topoisomerase II” and the “Ki values of 50% inhibition” value [2] is given as 300 µg/mL.

Work on `C[C@H]1COc2c(-c3ccncc3)c(F)cc3c(=O)c(C(=O)O)cn1c23` [1(b), (S)-10-(4-Pyridinyl)-9-fluoro-2,3-dihydro-3-methyl-7-oxo-7H-pyrido[1,2,3-de][1,4]benzoxazine-6-carboxylic acid] yielded an EC50 (human topoisomerase II) of 57 µM.

For `CCn1cc(C(=O)O)c(=O)c2cc(F)c(-c3ccncc3)c(F)c21` [CP-67,015, 6,8-difluoro-1-ethyl-7-(4-pyridyl)-1,4-dihydro-4-oxo-3-quinolinecarboxylic acid], the “enhancement/induction of DNA cleavage mediated by topoisomerase II (in words)” value [4] is given as “induced significant DNA cleavage in both the radiolabeled and cold cleavage assays”.

Compound `CCc1cc(-c2c(F)cc3c(=O)c(C(=O)O)cn4c3c2OC[C@@H]4C)ccn1` [3(c), (S)-10-(2-Ethyl-4-pyridinyl)-9-fluoro-2,3-dihydro-3-methyl-7-oxo-7H-pyrido[1,2,3-de][1,4]benzoxazine-6-carboxylic acid] has an EC50 (human topoisomerase II) of 92 µM.

For `C[C@H]1COc2c(-c3ccncc3)c(F)cc3c(=O)c(C(=O)O)cn1c23` [S-(-)-CP-92,121, (S)-9-fluoro-3-methyl-10-(4-pyridyl)-7-oxo-7H-pyrido[1,2,3-de][1,4]benzoxazine-6-carboxylic acid], the “combined activity against procaryotic and eucaryotic topoisomerase enzymes (in words)” value [3] is listed as “combined potent activity”.
